Marks after values point to notes of the source that are not given here.
Key:
Settings in all cases: 100 = 100% disease control, 0 = no control
[1] = test system: Erysiphe graminis f. sp. tritici; assay: Test L: wheat powdery mildew, preventive spray on wheat seedlings
[2] = test system: Puccinia recondita f. sp. tritici; assay: Test K: wheat leaf rust, preventive spray on wheat seedlings
[3] = test system: Plasmopara viticola; assay: Test D: grape downy mildew, spray after inoculation of grape seedlings; type: in vivo
From the text: Upon removal, disease ratings were made. […] A dash (-) indicates no test results.

[4] = test system: Pythium aphanidermatum; assay: Test A: bluegrass pythium blight, preventive spray on bluegrass seedlings
[5] = test system: Colletotrichum orbiculare; assay: Test B: cucumber Colletotrichum anthracnose, preventive spray on cucumber seedlings
[6] = test system: Septoria tritici; assay: Test J: wheat leaf blotch, preventive spray on wheat seedlings; type: in vivo
From the text: A dash (-) indicates no test results.

[7] = test system: Botrytis cinerea; assay: Test E: tomato botrytis, preventive spray on tomato seedlings
[8] = test system: Rhizoctonia oryzae; assay: Test G: turf brown patch, preventive spray on creeping bent grass seedlings
Method: (the causal agent of turf brown patch) and incubated in a saturated atmosphere at 27° C. for 24 h, and then moved to a growth chamber at 27° C. for 5 days, after which disease ratings were made.

[9] = test system: fusarium graminearium; assay: Test I: wheat head scab, preventive spray on wheat seedlings
Method: (the causal agent of wheat head scab) and incubated in a saturated atmosphere at 20° C. for 72 h, and then moved to a growth chamber at 22° C. for 5 days, after which disease ratings were made.

[10] = test system: Sclerotinia sclerotiorum; assay: Test C: cucumber white mold, preventive spray on cucumber seedlings
[11] = test system: Phytophthora infestans; assay: whole plant or invertebrate; type: in vivo
[12] = test system: Septoria nodorum; assay: Test H: wheat glum blotch, preventive spray on wheat seedlings
Method: (the causal agent of wheat glum blotch) and incubated in a saturated atmosphere at 20° C. for 48 h, and then moved to a growth chamber at 22° C. for 5 days, after which disease ratings were made.

Compound | Test L disease control rating ([1]; 40 ppm (marked *)) | Test K disease control rating ([2]; 40 ppm (marked *)) | Test D disease control rating ([3]; 40 ppm (marked *)) | Test A disease control rating ([4]; 40 ppm (marked *)) | Test B disease control rating ([5]; 40 ppm (marked *)) | Test J disease control rating ([6]; 40 ppm (marked *)) | Test E disease control rating ([7]; 40 ppm (marked *)) | Test G disease control rating ([8]; 40 ppm (marked *)) | Test L disease control rating ([1]; 200 ppm) | Test K disease control rating ([2]; 200 ppm) | Test D disease control rating ([3]; 200 ppm) | Test A disease control rating ([4]; 200 ppm) | Test B disease control rating ([5]; 200 ppm) | Test E disease control rating ([7]; 200 ppm) | Test G disease control rating ([8]; 200 ppm) | Test I disease control rating ([9]; 200 ppm) | Test C disease control rating ([10]; 200 ppm) | Test F disease control rating ([11]; 200 ppm) | Test H disease control rating ([12]; 200 ppm) | Test J disease control rating ([6]; 200 ppm) | other results
CC[C@H](C)Cn1c(-c2ccc(F)cc2Cl)c(Br)nc(-n2cccn2)c1=O [compound 281] | 100* % | 100* % | 0* % | 0* % | 100* % | 100* % | 100* % | 47* % |  |  |  |  |  |  |  |  |  |  |  |  | Test I disease control rating ([9]; 40 ppm (marked *)): 0* %; Test C disease control rating ([10]; 40 ppm (marked *)): 0* %; Test F disease control rating ([11]; 40 ppm (marked *)): 0* %; Test H disease control rating ([12]; 40 ppm (marked *)): 100* %
CC[C@H](C)Cn1c(-c2ccc(F)cc2Cl)c(Br)nc(-n2ccc(C)n2)c1=O [compound 282] | 100* % | 100* % | 0* % | 0* % | 100* % | 100* % | 100* % | 0* % |  |  |  |  |  |  |  |  |  |  |  |  | Test I disease control rating ([9]; 40 ppm (marked *)): 0* %; Test C disease control rating ([10]; 40 ppm (marked *)): 0* %; Test F disease control rating ([11]; 40 ppm (marked *)): 0* %; Test H disease control rating ([12]; 40 ppm (marked *)): 99* %
CC[C@H](C)Cn1c(-c2ccc(F)cc2Cl)c(Br)nc(N2CCC=N2)c1=O [compound 283] | 97* % | 96* % | 0* % | 0* % | 94* % | 100* % | 98* % | 0* % |  |  |  |  |  |  |  |  |  |  |  |  | Test I disease control rating ([9]; 40 ppm (marked *)): 0* %; Test C disease control rating ([10]; 40 ppm (marked *)): 0* %; Test F disease control rating ([11]; 40 ppm (marked *)): 47* %; Test H disease control rating ([12]; 40 ppm (marked *)): 0* %
CCCCn1c(-c2ccc(F)cc2Cl)c(Br)nc(-n2cccn2)c1=O [compound 284] | 96* % | 95* % | 0* % | 0* % | 0* % | 100* % | 94* % | 0* % |  |  |  |  |  |  |  |  |  |  |  |  | Test I disease control rating ([9]; 40 ppm (marked *)): 0* %; Test C disease control rating ([10]; 40 ppm (marked *)): 0* %; Test F disease control rating ([11]; 40 ppm (marked *)): 16* %; Test H disease control rating ([12]; 40 ppm (marked *)): 99* %
CCCCn1c(-c2ccc(F)cc2Cl)c(Br)nc(-n2ccc(C)n2)c1=O [compound 285] | 92* % | 89* % | 0* % | 0* % | 0* % | 100* % | 99* % | 0* % |  |  |  |  |  |  |  |  |  |  |  |  | Test I disease control rating ([9]; 40 ppm (marked *)): 0* %; Test C disease control rating ([10]; 40 ppm (marked *)): 0* %; Test F disease control rating ([11]; 40 ppm (marked *)): 0* %; Test H disease control rating ([12]; 40 ppm (marked *)): 85* %
O=c1c(-n2cccn2)nc(Cl)c(-c2ccccc2Cl)n1Cc1ccccc1 [compound 288] |  |  |  |  |  | 100* % |  |  | 91% | 91% | 0% | 0% | 91% | 100% | 0% | 0% | 0% | 0% | 100% |  | 
Cc1ccn(-c2nc(Cl)c(C(C)C)n(CC(C)C)c2=O)n1 [compound 289] |  |  |  |  |  |  |  |  | 79% | 100% | 0% | 0% | 0% | 100% | 95% | 0% | 0% | 57% | 0% | 96% | 
CC(C)Cn1c(C2CCCC2)c(Cl)nc(-n2cccn2)c1=O [compound 290] |  |  |  |  |  |  |  |  | 99% | 100% | 0% | 0% | 0% | 100% | 77% | 0% | 0% | 0% | 0% | 100% | 
CC(C)Cn1c(C2CCCCC2)c(Cl)nc(-n2cccn2)c1=O [compound 291] |  |  |  |  |  |  |  |  | 71% | 88% | 33% | 0% | 0% | 97% | 0% | 0% | 0% | 0% | 0% | 100% | 
CC(C)Cc1c(Cl)nc(-n2cccn2)c(=O)n1CC(C)C [compound 292] |  |  |  |  |  |  |  |  | 74% | 27% | 0% | 0% | 0% | 0% | 0% | 0% | 0% | 0% | 0% | 38% | 
Cc1ccn(-c2nc(Cl)c(C3CCCC3)n(CC(C)C)c2=O)n1 [compound 293] |  |  |  |  |  |  |  |  | 0% | 88% | 0% | 0% | 0% | 95% | 0% | 0% | 0% | 0% | 0% | 97% | 
Cc1ccn(-c2nc(Cl)c(C3CCCCC3)n(CC(C)C)c2=O)n1 [compound 294] |  |  |  |  |  |  |  |  | 0% | 54% | 0% | 0% | 0% | 31% | 0% | 0% | 0% | 0% | 0% | 95% | 
Cc1ccn(-c2nc(Cl)c(CC(C)C)n(CC(C)C)c2=O)n1 [compound 295] |  |  |  |  |  |  |  |  | 0% | 27% | 0% | 0% | 0% | 0% | 0% | 0% | 0% | 0% | 0% | 53% | 
CCC(C)Cn1c(-c2c(F)cccc2F)c(Cl)nc(C(=O)NC(C)C)c1=O (stereo not drawn) [compound 296] |  |  |  |  |  |  |  |  | 93% | 100% | 53% | 0% | 93% | 100% | 0% | 0% | 85% | 0% | 100% | 100% | 
CCC(C)Cn1c(-c2c(F)cccc2F)c(Cl)nc(C(=O)NCC2CC2)c1=O (stereo not drawn) [compound 300] |  |  |  |  |  |  |  |  | 97% | 100% | 40% | 0% | 93% | 100% | 16% | 0% | 0% | 0% | 99% | 100% | 
CCC(C)CNC(=O)c1nc(Cl)c(-c2c(F)cccc2F)n(CC(C)CC)c1=O (stereo not drawn) [compound 301] |  |  |  |  |  |  |  |  | 68% | 99% | 0% | 0% | 0% | 100% | 0% | 0% | 0% | 0% | 87% | 98% | 
